According to US10287267B2, “Isoquinolin-3-yl carboxamides and preparation and use thereof” (Samumed, LLC, priority 2016, dated 2019):

Tests used:
[1] = tested on: Tau phosphorylation at Ser396 (pSer396); assay: Tau phosphorylation assay (pSer396 ELISA / western blot) in SH-SY5Y cells; type: cell-based, human; conditions: Homo sapiens; SH-SY5Y cells, overnight (16-18 h) exposure; read-out: pSer396 Tau EC50;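 also: EC50 for reduction of Tau pSer396 in lysed cells, measured by colorimetric ELISA or chemiluminescent western blot, both using the same pSer396 antibody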
recombinant GSK3β kinase = recombinant GSK3β kinase (Homo sapiens (Human), UniProt P49841); assay: GSK3β kinase assay (Ser/Thr 09 peptide Z-lyte FRET); type: biochemical; conditions: 46 μM ATP, 1 h room temperature;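 also: kinase activity read as coumarin to fluorescein emission ratio, 11-point threefold dilutions from 10 µM to 0.0003 µM in duplicate, unphosphorylated and phosphorylated peptide as 0% and 100% controls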
Sequence of recombinant GSK3β kinase (P49841 whole entry): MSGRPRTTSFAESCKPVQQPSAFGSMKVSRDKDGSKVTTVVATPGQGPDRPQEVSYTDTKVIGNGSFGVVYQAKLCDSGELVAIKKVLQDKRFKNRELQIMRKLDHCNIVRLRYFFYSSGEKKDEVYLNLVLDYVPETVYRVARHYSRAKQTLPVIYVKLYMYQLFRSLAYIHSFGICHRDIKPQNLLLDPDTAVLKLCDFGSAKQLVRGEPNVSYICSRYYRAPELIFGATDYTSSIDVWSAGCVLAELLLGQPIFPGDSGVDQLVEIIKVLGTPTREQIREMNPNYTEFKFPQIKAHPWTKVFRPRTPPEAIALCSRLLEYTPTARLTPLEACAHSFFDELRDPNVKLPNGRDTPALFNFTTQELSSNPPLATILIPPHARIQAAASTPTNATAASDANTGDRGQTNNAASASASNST

[2] = target: recombinant DYRK1A kinase (Homo sapiens (Human), UniProt Q13627); assay: DYRK1A kinase assay (Ser/Thr 18 peptide Z-lyte FRET); type: biochemical; conditions: 30 μM ATP, 1 h room temperature;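 also: Read-out is the coumarin to fluorescein emission ratio, referenced to unphosphorylated (0%) and phosphorylated (100%) Ser/Thr 18 peptide controls, values from dose-response curves by non-linear regression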
IL-6 = IL-6 inhibition in LPS-stimulated human peripheral blood mononuclear cells (HTRF); type: cell-based; conditions: Homo sapiens, PBMC; for EC50: Table 9, huPBMCs, LPS 50 ng/mL, 22 hours, dose-response starting from 10 μM;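 as to all read-outs here: IL-6 detected by HTRF with an XL665- and Cryptate-labelled anti-IL-6 antibody pair, samples run in duplicate, EC50 obtained from a four-parameter Levenberg-Marquardt curve fit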
Method: After 22 hour incubation, a mixture of anti-IL6 XL665 and anti-IL-6 Cryptate diluted in reconstitution buffer (Catalog #62IL6PEC, Cisbio Inc., Bedford, Mass.) was added to each well. […] All samples were processed in duplicate. […] EC50 was determined using software generated by Dotmatics Limited (Windhill Bishops Stortford Herts, UK) using the Levenberg-Marquardt 4 parameter fitting procedure with finite different gradients.

[3] = tested on: Wnt pathway (Sp5-Luc reporter, TCF/LEF binding sites) in SW480 colon carcinoma cells; assay: Screening assay for Wnt activity: Sp5-Luc reporter gene assay; type: cell-based, human; conditions: Homo sapiens; for EC50: Sp5-Luc reporter, SW480 cells, 36 to 48 hours;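 as to all read-outs here: firefly luciferase luminescence read in stably transduced SW480 cells carrying the Sp5 promoter reporter with eight TCF/LEF sites, compounds given in 0.1% DMSO final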
Method: The screening assay for Wnt activity is described as follows.
Following incubation, 15 μl of BriteLite Plus luminescence reagent (Perkin Elmer) was added to each well of the 384-well assay plates. The plates were placed on an orbital shaker for 2 min and then luminescence was quantified using the Envision (Perkin Elmer) plate reader.

[4] = tested on: SW480 colon carcinoma cells; assay: Cell viability assay (CellTiter-Glo); type: cell-based, human; conditions: Homo sapiens; for EC50: 96 h, SW480 cells, CellTiter-Glo, four days incubation
[5] = tested on: α-smooth muscle actin (αSMA) positive LL29 cells; assay: Inhibition of fibrotic process: αSMA in TGF-β1 treated primary human fibroblasts from IPF patients; type: cell-based; conditions: Homo sapiens, Fibroblast; for EC50: 96 h, Table 8, LL29 fibroblasts from IPF patients, TGF-β1 20 ng/mL, 4 days, dose-response 10 μM to 0.94 nM;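 as to all read-outs here: controls were TGF-β1 stimulated wells with DMSO vehicle (positive) and cells given DMSO alone (negative), cultured in F12 medium with 1% fetal bovine serum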
[6] = read-out: percent value in parentheses beside EC50 >10 μM
[7] = SW480, read-out: percent inhibition at 10 μM

Compound | EC50 [1] [nM] | EC50 (recombinant GSK3β kinase) [nM] | EC50 [2] [nM] | EC50 (IL-6) [nM] | EC50 [3] [nM] | EC50 [4] [nM] | EC50 [5] [nM] | inhibition at 10 µM (IL-6; [6]) [%] | inhibition at 10 µM [3, 7] [%] | inhibition at 10 µM [4, 7] [%] | inhibition at 10 µM [5, 6] [%]
CO[C@H]1CC[C@H](C(=O)Nc2cc3cc(-c4cncn4C)ccc3cn2)CC1 [Compound 528, trans-4-Methoxy-N-(6-(1-methyl-1H-imidazol-5-yl)isoquinolin-3-yl) cyclohexane-1-carboxamide] | 323 | 96 | 0.8 | 1780 | 1150 | 1420 | 103 |  |  |  | 
Cn1cncc1-c1ccc2cnc(NC(=O)[C@H]3CC[C@H](CO)CC3)cc2c1 [Compound 531, trans-4-(Hydroxymethyl)-N-(6-(1-methyl-1H-imidazol-5-yl)isoquinolin-3-yl)cyclohexane-1-carboxamide] | 146 | 50 | 0.9 | 698 | 1060 | 989 | 153 |  |  |  | 
Cn1cncc1-c1ccc2cnc(NC(=O)C3CNC3)cc2c1 [Compound 535, N-(6-(1-Methyl-1H-imidazol-5-yl)isoquinolin-3-yl)azetidine-3-carboxamide] | 6200 | 87 | 4.5 | > 10000 | > 10000 | > 10000 | > 10000 | 3.1 | 44.9 | 42 | 17.7
Cn1cncc1-c1ccc2cnc(NC(=O)[C@H]3CCCO3)cc2c1 [Compound 537, (R)—N-(6-(1-Methyl-1H-imidazol-5-yl)isoquinolin-3-yl)tetrahydrofuran-2-carboxamide] | 451 | 95 | 8.9 | 1240 | 4800 | 8300 | 599 |  |  |  | 
COCCN1CCC(C(=O)Nc2cc3cc(-c4cncn4C)ccc3cn2)CC1 [Compound 547, 1-(2-Methoxyethyl)-N-(6-(1-methyl-1H-imidazol-5-yl)isoquinolin-3-yl) piperidine-4-carboxamide] | 379 | 104 | 3.4 | 1120 | 2230 | 931 | 160 |  |  |  | 
CC(C)CN1CCC(C(=O)Nc2cc3cc(-c4cncn4C)ccc3cn2)CC1 [Compound 554, 1-Isobutyl-N-(6-(1-methyl-1H-imidazol-5-yl)isoquinolin-3-yl)piperidine-4-carboxamide] | 95 | 38 | 1.4 | 439 | 272 | 366 | 190 |  |  |  | 
Cn1cncc1-c1ccc2cnc(NC(=O)C3CCN(S(C)(=O)=O)CC3)cc2c1 [Compound 561, N-(6-(1-Methyl-1H-imidazol-5-yl)isoquinolin-3-yl)-1-(methylsulfonyl) piperidine-4-carboxamide] | 395 | 12 | 1.5 | 634 | 1460 | 924 | 600 |  |  |  | 
CC(C(=O)Nc1cc2cc(-c3cncn3C)ccc2cn1)N1CCCC1 (stereo not drawn) [Compound 579, N-(6-(1-Methyl-1H-imidazol-5-yl)isoquinolin-3-yl)-2-(pyrrolidin-1-yl) propanamide] | 62 | 48 | 25 | 1020 | 899 | 954 | 167 |  |  |  | 
CC(C)CN1CCC(C(=O)Nc2cc3cc(-c4cn[nH]c4)ccc3cn2)CC1 [Compound 643, N-(6-(1H-Pyrazol-4-yl)isoquinolin-3-yl)-1-isobutylpiperidine-4-carboxamide] | 49 | 49 | 1.8 | 129 | 129 | 115 | 138 |  |  |  | 
O=C(Nc1cc2cc(-c3cncs3)ccc2cn1)C1CC(F)(F)C1 [Compound 699, 3,3-Difluoro-N-(6-(thiazol-5-yl)isoquinolin-3-yl)cyclobutane-1-carboxamide] | 423 | 24 | 2.1 | 410 | 541 | 834 | 234 |  |  |  | 
CN1CC2(CC(C(=O)Nc3cc4cc(-c5cncs5)ccc4cn3)C2)C1 [Compound 700, 2-Methyl-N-(6-(thiazol-5-yl)isoquinolin-3-yl)-2-azaspiro[3.3]heptane-6-carboxamide] | 513 | 49 | 2.2 | 380 | 771 | 623 | 275 |  |  |  | 
